Where “and” joins values, the source holds several entries; their conditions need not be identical. Equal entries are not always repeated. Entries after “also recorded” stand apart in the source; their conditions may differ.
What was measured:
androgen receptor [1] = assay: Androgen receptor inhibition, Blastomyces; format: binding
progesterone receptor = assay: Progesterone receptor inhibition, Trichophyton; format: binding
androgen receptor [2] = target: T1, androgen receptor (Homo sapiens, UniProt P10275); assay: Androgen receptor inhibition in skin/tissue fibroblast lines; format: cell-based; set-up: The bald skin was used for androgen receptors using the second technique described above; from tissue; host or cells: bald scalp skin of hair transplantation volunteers; details: DHT:compound 1:1,000
T1 sequence (P10275 1-920): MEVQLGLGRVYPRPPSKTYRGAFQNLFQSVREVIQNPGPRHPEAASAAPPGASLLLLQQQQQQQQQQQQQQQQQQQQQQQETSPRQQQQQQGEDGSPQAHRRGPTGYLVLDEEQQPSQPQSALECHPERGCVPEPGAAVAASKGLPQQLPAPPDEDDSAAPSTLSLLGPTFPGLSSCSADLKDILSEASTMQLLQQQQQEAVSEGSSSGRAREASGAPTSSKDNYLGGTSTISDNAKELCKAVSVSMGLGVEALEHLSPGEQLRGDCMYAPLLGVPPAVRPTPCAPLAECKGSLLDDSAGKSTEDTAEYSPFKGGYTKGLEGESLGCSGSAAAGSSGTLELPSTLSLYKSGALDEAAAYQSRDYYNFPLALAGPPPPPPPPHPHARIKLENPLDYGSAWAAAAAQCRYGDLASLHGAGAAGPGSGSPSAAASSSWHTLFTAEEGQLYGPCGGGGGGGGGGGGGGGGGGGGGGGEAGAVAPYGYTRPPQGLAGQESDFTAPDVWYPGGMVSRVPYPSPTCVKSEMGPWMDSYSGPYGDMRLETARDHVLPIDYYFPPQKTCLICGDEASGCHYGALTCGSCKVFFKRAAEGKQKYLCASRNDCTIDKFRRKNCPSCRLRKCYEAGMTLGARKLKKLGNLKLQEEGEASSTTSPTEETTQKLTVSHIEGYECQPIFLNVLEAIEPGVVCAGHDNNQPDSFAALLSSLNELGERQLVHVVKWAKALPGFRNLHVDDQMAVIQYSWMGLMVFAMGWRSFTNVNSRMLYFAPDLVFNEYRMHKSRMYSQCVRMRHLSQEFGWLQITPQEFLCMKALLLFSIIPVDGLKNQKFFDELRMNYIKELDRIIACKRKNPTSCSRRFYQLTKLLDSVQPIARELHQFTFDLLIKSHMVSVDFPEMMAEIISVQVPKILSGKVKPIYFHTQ
Protocol: (§1) Explants of both normal and keloid skin and tissue fibroblast lines were established.
(§2) Hormonal receptor analyses on these tissues were performed by the method of Griffith et al., Journal of Clinical Investigation, Vol. 57, page 1340 (1978).

estrogen receptor = assay: Estrogen receptor inhibition in skin/tissue fibroblast lines; format: cell-based, human; details: DHT:compound 1:1,000; for interference with / inhibition of estrogen receptors: more than 400 experiments
Protocol: as §1, §2

Compound	% Androgen Receptor Inhibition (androgen receptor [1]) [%]	% Progesterone Receptor Inhibition (progesterone receptor) [%]	% Androgen Receptor Inhibition (androgen receptor [2]; forearm) [%]	% Androgen Receptor Inhibition (androgen receptor [2]; keloid)	interference with / inhibition of estrogen receptors (estrogen receptor)	interference with / inhibition of estrogen receptors (estrogen receptor; listed as 2-(5-methoxyhept-1-yl)bicyclo[3.3.0]octan-7-one)	% Estrogen Receptor Inhibition (estrogen receptor; forearm) [%]	% Estrogen Receptor Inhibition (estrogen receptor; keloid) [%]	% Estrogen Receptor Inhibition (estrogen receptor; keloid, listed as 2-(5-methoxyhept-1-yl)bicyclo[3.3.0]octan-7-one)	% Estrogen Receptor Inhibition (estrogen receptor; scalp) [%]
CCC(O)CCCCC1CCC2CC(=O)CC12 (stereo not shown) [Compound IV]	49	7	–	–	–	–	–	–	–	–
CCC(CCCCC1CCC2CC(=O)CC12)OC (stereo not shown) [Compound V, 2-(5-Methoxyhept-1-yl)bicyclo[3.3.0]octan-7-one]	–	–	22	72% and 41%	without significant interference	None of the tests showed any measurable estrogen receptor inhibition; also recorded: without significant interference	0	0	no measurable	0
